Target: T1, TvCE (Trichomonas vaginalis, UniProt A2DUZ5)
T1 construct: gene TVAG_187730; full-length (561 residues, 69 kDa without tag), N-terminal His tag from pET200D, E. coli BL21, ~71 kDa monomer
T1 sequence (A2DUZ5 1-561): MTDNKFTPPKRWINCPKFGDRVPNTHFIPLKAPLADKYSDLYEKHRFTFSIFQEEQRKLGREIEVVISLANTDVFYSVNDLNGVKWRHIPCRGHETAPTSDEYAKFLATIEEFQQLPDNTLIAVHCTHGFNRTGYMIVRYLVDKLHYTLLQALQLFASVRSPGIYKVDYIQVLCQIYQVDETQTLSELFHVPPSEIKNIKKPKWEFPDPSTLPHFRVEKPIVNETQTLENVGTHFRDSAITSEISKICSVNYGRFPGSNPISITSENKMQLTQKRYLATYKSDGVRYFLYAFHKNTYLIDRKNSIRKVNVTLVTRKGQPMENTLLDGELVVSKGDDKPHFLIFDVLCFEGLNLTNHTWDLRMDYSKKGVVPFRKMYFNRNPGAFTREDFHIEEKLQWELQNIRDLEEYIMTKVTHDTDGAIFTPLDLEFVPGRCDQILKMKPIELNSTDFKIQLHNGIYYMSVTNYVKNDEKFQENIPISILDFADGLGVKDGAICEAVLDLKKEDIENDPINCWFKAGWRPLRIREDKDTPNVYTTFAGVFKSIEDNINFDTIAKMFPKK
Assay: SDS-PAGE autoradiography of covalent enzyme-GMP intermediate; cold NTP competition
Format: biochemical
Settings: guanylyltransferase domain; labelled compound; covalent enzyme-(lysyl-N)-GMP; 50 mM Tris-acetate pH 7.0, 5 mM DTT, 2.5 mM MgCl2, 37 °C

SMILES: Nc1nc2c(ncn2[C@@H]2O[C@H](COP(=O)(O)OP(=O)(O)OP(=O)(O)O)[C@@H](O)[C@H]2O)c(=O)[nH]1 [[α-^32P]GTP]
- SDS-PAGE autoradiography of covalent enzyme-GMP intermediate; cold NTP competiti: displayed an absolute specificity for a GTP substrate

From PMC2904801, “A Metazoan/Plant-like Capping Enzyme and Cap Modified Nucleotides in the Unicellular Eukaryote Trichomonas vaginalis” (PLoS Pathogens, 2010)
